Here are results for eight molecules from PubChem BioAssay (NCI).

The structures appear in SMILES notation.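 Compound exposure: 48 hours, 5 concentrations, 96-well plates. Here, GI50 denotes the concentration required for 50% inhibition of growth. TGI denotes the concentration required for complete inhibition of growth.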 Bounds are passed on as bounds.

One experiment has as its system ACHN renal. Description: NCI tumour cell line growth inhibition, 48 h.
As to `COc1ccc(OC)c(/C=C2\SC(=S)NC2=O)c1`, the GI50 was 26.7 µM and the TGI turned out to be 95.1 µM.

For the molecule `O=c1cc(-c2ccccc2)[nH]c2ccccc12`, the GI50 was 0.858 µM and the TGI is greater than 100 µM.

Molecule `CCN(CC)c1ccc(C(=O)c2ccccc2C(=O)O)c(O)c1` had a TGI greater than 100 µM.

For the molecule `COc1ccc(OC)c(NC(=O)C2=C(C)NC(C)=C(C(=O)Nc3cc(OC)ccc3OC)C2c2ccccc2)c1`, the TGI is greater than 100 µM.

As for `COc1cc2c(c(OC)c1)C1c3ccccc3NC(=O)N1CC2` (stereo not drawn), the GI50 was 5.48 µM and the TGI is greater than 100 µM.

With `CC(CCC(=O)O)[C@H]1CCC2[C@@H]3CC[C@@H]4CC(O)CC[C@]4(C)C3CC[C@@]21C` (stereo partly drawn), the GI50 was 29.3 µM and the TGI was greater than 100 µM.

On to `Cc1ccc(NC(=O)C(=O)C(C#N)c2ccccc2C)cc1C` (stereo not drawn), for which the TGI is greater than 100 µM.

On to `O=C1c2cccnc2C(=O)c2nc3cc(N4CCN(C5CC5)CC4)ccc3nc21`, for which the GI50 is 0.6 µM and the TGI is 4.34 µM.

Another experiment concerns SNB-75 CNS. Description: NCI tumour cell line growth inhibition, 48 h.
Regarding `COc1ccc(OC)c(/C=C2\SC(=S)NC2=O)c1`, the GI50 was 29.3 µM and the TGI was greater than 100 µM.

For `O=c1cc(-c2ccccc2)[nH]c2ccccc12`, the GI50 was 0.542 µM and the TGI is greater than 100 µM.

Take `CCN(CC)c1ccc(C(=O)c2ccccc2C(=O)O)c(O)c1`: the TGI was greater than 100 µM.

Molecule `COc1ccc(OC)c(NC(=O)C2=C(C)NC(C)=C(C(=O)Nc3cc(OC)ccc3OC)C2c2ccccc2)c1` registered a TGI of 91 µM.

Take `COc1cc2c(c(OC)c1)C1c3ccccc3NC(=O)N1CC2` (stereo not drawn): the GI50 was 2.69 µM and the TGI is greater than 100 µM.

On to `CC(CCC(=O)O)[C@H]1CCC2[C@@H]3CC[C@@H]4CC(O)CC[C@]4(C)C3CC[C@@]21C` (stereo partly drawn), for which the GI50 was 66.1 µM and the TGI is greater than 100 µM.

`Cc1ccc(NC(=O)C(=O)C(C#N)c2ccccc2C)cc1C` (stereo not drawn) registered a TGI greater than 100 µM.

On to `O=C1c2cccnc2C(=O)c2nc3cc(N4CCN(C5CC5)CC4)ccc3nc21`, for which the GI50 was 0.147 µM and the TGI turned out to be 1.37 µM.

The test system of another experiment is NCI-H460 lung. Description: NCI tumour cell line growth inhibition, 48 h.
With `COc1ccc(OC)c(/C=C2\SC(=S)NC2=O)c1`, the GI50 was 32.6 µM and the TGI is greater than 100 µM.

Regarding `O=c1cc(-c2ccccc2)[nH]c2ccccc12`, the GI50 is 0.398 µM and the TGI is greater than 50.9 µM.

`CCN(CC)c1ccc(C(=O)c2ccccc2C(=O)O)c(O)c1` had a TGI greater than 100 µM.

On to `COc1ccc(OC)c(NC(=O)C2=C(C)NC(C)=C(C(=O)Nc3cc(OC)ccc3OC)C2c2ccccc2)c1`, for which the TGI is greater than 100 µM.

For `COc1cc2c(c(OC)c1)C1c3ccccc3NC(=O)N1CC2` (stereo not drawn), the GI50 is 3.7 µM and the TGI is greater than 100 µM.

As for `CC(CCC(=O)O)[C@H]1CCC2[C@@H]3CC[C@@H]4CC(O)CC[C@]4(C)C3CC[C@@]21C` (stereo partly drawn), the GI50 was 31 µM and the TGI turned out to be 97.4 µM.

As for `Cc1ccc(NC(=O)C(=O)C(C#N)c2ccccc2C)cc1C` (stereo not drawn), the TGI was greater than 79.9 µM.

For the molecule `O=C1c2cccnc2C(=O)c2nc3cc(N4CCN(C5CC5)CC4)ccc3nc21`, the GI50 is 0.137 µM and the TGI worked out at 0.352 µM.

A further experiment relates to COLO 205 colon. Description: NCI tumour cell line growth inhibition, 48 h.
Turning to `COc1ccc(OC)c(/C=C2\SC(=S)NC2=O)c1`, the GI50 is 48.3 µM and the TGI is greater than 100 µM.

In the case of `O=c1cc(-c2ccccc2)[nH]c2ccccc12`, the GI50 is 0.45 µM.

Consider `CCN(CC)c1ccc(C(=O)c2ccccc2C(=O)O)c(O)c1`, for which the TGI was greater than 100 µM.

For `COc1ccc(OC)c(NC(=O)C2=C(C)NC(C)=C(C(=O)Nc3cc(OC)ccc3OC)C2c2ccccc2)c1`, the TGI was greater than 100 µM.

On to `COc1cc2c(c(OC)c1)C1c3ccccc3NC(=O)N1CC2` (stereo not drawn), for which the GI50 is 2.82 µM and the TGI turned out to be 8.25 µM.

As for `CC(CCC(=O)O)[C@H]1CCC2[C@@H]3CC[C@@H]4CC(O)CC[C@]4(C)C3CC[C@@]21C` (stereo partly drawn), the GI50 was 23.7 µM and the TGI amounted to 53.1 µM.

Turning to `Cc1ccc(NC(=O)C(=O)C(C#N)c2ccccc2C)cc1C` (stereo not drawn), the TGI was greater than 67.3 µM.

On to `O=C1c2cccnc2C(=O)c2nc3cc(N4CCN(C5CC5)CC4)ccc3nc21`, for which the GI50 is 0.558 µM and the TGI is 2.34 µM.

Another experiment concerns UACC-257 melanoma. Description: NCI tumour cell line growth inhibition, 48 h.
As to `COc1ccc(OC)c(/C=C2\SC(=S)NC2=O)c1`, the GI50 is 19.8 µM and the TGI is 61.5 µM.

Regarding `O=c1cc(-c2ccccc2)[nH]c2ccccc12`, the GI50 is greater than 79.3 µM and the TGI is greater than 100 µM.

`CCN(CC)c1ccc(C(=O)c2ccccc2C(=O)O)c(O)c1` registered a TGI greater than 100 µM.

`COc1ccc(OC)c(NC(=O)C2=C(C)NC(C)=C(C(=O)Nc3cc(OC)ccc3OC)C2c2ccccc2)c1` returned a TGI greater than 100 µM.

On to `COc1cc2c(c(OC)c1)C1c3ccccc3NC(=O)N1CC2` (stereo not drawn), for which the GI50 was 51 µM and the TGI is greater than 100 µM.

Regarding `CC(CCC(=O)O)[C@H]1CCC2[C@@H]3CC[C@@H]4CC(O)CC[C@]4(C)C3CC[C@@]21C` (stereo partly drawn), the GI50 was 27.7 µM and the TGI is greater than 100 µM.

For `Cc1ccc(NC(=O)C(=O)C(C#N)c2ccccc2C)cc1C` (stereo not drawn), the TGI is greater than 100 µM.

Consider `O=C1c2cccnc2C(=O)c2nc3cc(N4CCN(C5CC5)CC4)ccc3nc21`, for which the GI50 is 0.479 µM and the TGI came out at 1.98 µM.

Another experiment relates to K-562 leukemia. Description: NCI tumour cell line growth inhibition, 48 h.
For the molecule `COc1ccc(OC)c(/C=C2\SC(=S)NC2=O)c1`, the GI50 is 42.5 µM and the TGI was greater than 100 µM.

Molecule `O=c1cc(-c2ccccc2)[nH]c2ccccc12` returned a TGI greater than 100 µM.

In turn, `CCN(CC)c1ccc(C(=O)c2ccccc2C(=O)O)c(O)c1` came in with a TGI greater than 100 µM.

Turning to `COc1ccc(OC)c(NC(=O)C2=C(C)NC(C)=C(C(=O)Nc3cc(OC)ccc3OC)C2c2ccccc2)c1`, the TGI is greater than 100 µM.

For the molecule `COc1cc2c(c(OC)c1)C1c3ccccc3NC(=O)N1CC2` (stereo not drawn), the GI50 is 2.98 µM and the TGI was greater than 100 µM.

Turning to `CC(CCC(=O)O)[C@H]1CCC2[C@@H]3CC[C@@H]4CC(O)CC[C@]4(C)C3CC[C@@]21C` (stereo partly drawn), the GI50 is 32.6 µM and the TGI is greater than 100 µM.

The molecule `Cc1ccc(NC(=O)C(=O)C(C#N)c2ccccc2C)cc1C` (stereo not drawn) registered a TGI greater than 70.1 µM.

`O=C1c2cccnc2C(=O)c2nc3cc(N4CCN(C5CC5)CC4)ccc3nc21`: the GI50 is 0.522 µM and the TGI is greater than 20.7 µM.

The subject of the next experiment is CAKI-1 renal. Description: NCI tumour cell line growth inhibition, 48 h.
Take `COc1ccc(OC)c(/C=C2\SC(=S)NC2=O)c1`: the GI50 was 21.9 µM and the TGI was 61.4 µM.

With `O=c1cc(-c2ccccc2)[nH]c2ccccc12`, the GI50 was 0.825 µM and the TGI was greater than 100 µM.

As to `CCN(CC)c1ccc(C(=O)c2ccccc2C(=O)O)c(O)c1`, the TGI is greater than 100 µM.

In turn, `COc1ccc(OC)c(NC(=O)C2=C(C)NC(C)=C(C(=O)Nc3cc(OC)ccc3OC)C2c2ccccc2)c1` returned a TGI greater than 100 µM.

As to `COc1cc2c(c(OC)c1)C1c3ccccc3NC(=O)N1CC2` (stereo not drawn), the GI50 was 4.62 µM and the TGI is greater than 100 µM.

Turning to `CC(CCC(=O)O)[C@H]1CCC2[C@@H]3CC[C@@H]4CC(O)CC[C@]4(C)C3CC[C@@]21C` (stereo partly drawn), the GI50 is 26.7 µM and the TGI amounted to 72.3 µM.

`Cc1ccc(NC(=O)C(=O)C(C#N)c2ccccc2C)cc1C` (stereo not drawn) returned a TGI greater than 100 µM.

`O=C1c2cccnc2C(=O)c2nc3cc(N4CCN(C5CC5)CC4)ccc3nc21`: the GI50 is 0.439 µM and the TGI was found to be 3.05 µM.

In a further experiment the test system is HOP-92 NSCLC. Description: NCI tumour cell line growth inhibition, 48 h.
For `COc1ccc(OC)c(/C=C2\SC(=S)NC2=O)c1`, the GI50 is 16 µM and the TGI was 55.4 µM.

For the molecule `O=c1cc(-c2ccccc2)[nH]c2ccccc12`, the GI50 was 0.571 µM and the TGI is greater than 100 µM.

`CCN(CC)c1ccc(C(=O)c2ccccc2C(=O)O)c(O)c1` gave a TGI greater than 100 µM.

As to `COc1ccc(OC)c(NC(=O)C2=C(C)NC(C)=C(C(=O)Nc3cc(OC)ccc3OC)C2c2ccccc2)c1`, the TGI is greater than 100 µM.

Regarding `COc1cc2c(c(OC)c1)C1c3ccccc3NC(=O)N1CC2` (stereo not drawn), the GI50 was 7.25 µM and the TGI was greater than 100 µM.

For `CC(CCC(=O)O)[C@H]1CCC2[C@@H]3CC[C@@H]4CC(O)CC[C@]4(C)C3CC[C@@]21C` (stereo partly drawn), the GI50 is 28 µM and the TGI amounted to 87.9 µM.

Turning to `Cc1ccc(NC(=O)C(=O)C(C#N)c2ccccc2C)cc1C` (stereo not drawn), the TGI was greater than 100 µM.

In the case of `O=C1c2cccnc2C(=O)c2nc3cc(N4CCN(C5CC5)CC4)ccc3nc21`, the GI50 was 2.93 µM and the TGI was 9.95 µM.

In a further experiment the test system is NCI-H522 lung. Description: NCI tumour cell line growth inhibition, 48 h.
Turning to `COc1ccc(OC)c(/C=C2\SC(=S)NC2=O)c1`, the GI50 was 31.4 µM and the TGI is greater than 100 µM.

Consider `O=c1cc(-c2ccccc2)[nH]c2ccccc12`, for which the GI50 is 0.439 µM and the TGI is greater than 46.7 µM.

`CCN(CC)c1ccc(C(=O)c2ccccc2C(=O)O)c(O)c1` gave a TGI greater than 100 µM.

`COc1ccc(OC)c(NC(=O)C2=C(C)NC(C)=C(C(=O)Nc3cc(OC)ccc3OC)C2c2ccccc2)c1` came in with a TGI greater than 100 µM.

With `COc1cc2c(c(OC)c1)C1c3ccccc3NC(=O)N1CC2` (stereo not drawn), the GI50 was 2.97 µM and the TGI worked out at 11.8 µM.

`CC(CCC(=O)O)[C@H]1CCC2[C@@H]3CC[C@@H]4CC(O)CC[C@]4(C)C3CC[C@@]21C` (stereo partly drawn): the GI50 is 68.1 µM and the TGI was greater than 100 µM.

`Cc1ccc(NC(=O)C(=O)C(C#N)c2ccccc2C)cc1C` (stereo not drawn) yielded a TGI greater than 100 µM.

`O=C1c2cccnc2C(=O)c2nc3cc(N4CCN(C5CC5)CC4)ccc3nc21`: the GI50 was 0.238 µM and the TGI was found to be 1.36 µM.

In another experiment the test system is KM12 colon. Description: NCI tumour cell line growth inhibition, 48 h.
With `COc1ccc(OC)c(/C=C2\SC(=S)NC2=O)c1`, the GI50 is 58.7 µM and the TGI is greater than 100 µM.

With `O=c1cc(-c2ccccc2)[nH]c2ccccc12`, the GI50 is 0.464 µM and the TGI is greater than 100 µM.

The molecule `CCN(CC)c1ccc(C(=O)c2ccccc2C(=O)O)c(O)c1` registered a TGI greater than 100 µM.

Regarding `COc1ccc(OC)c(NC(=O)C2=C(C)NC(C)=C(C(=O)Nc3cc(OC)ccc3OC)C2c2ccccc2)c1`, the TGI is greater than 100 µM.

Take `COc1cc2c(c(OC)c1)C1c3ccccc3NC(=O)N1CC2` (stereo not drawn): the GI50 is 4.95 µM and the TGI was greater than 100 µM.

Consider `CC(CCC(=O)O)[C@H]1CCC2[C@@H]3CC[C@@H]4CC(O)CC[C@]4(C)C3CC[C@@]21C` (stereo partly drawn), for which the GI50 was 40.5 µM and the TGI was greater than 100 µM.

With `Cc1ccc(NC(=O)C(=O)C(C#N)c2ccccc2C)cc1C` (stereo not drawn), the TGI was greater than 100 µM.

With `O=C1c2cccnc2C(=O)c2nc3cc(N4CCN(C5CC5)CC4)ccc3nc21`, the GI50 was 1.25 µM and the TGI was found to be 5.11 µM.
